Assay results reported in patent EP4745151A1, “FIBROBLAST ACTIVATION PROTEIN LIGAND AND USE THEREOF” (Jiangsu Hengrui Pharmaceuticals Co., Ltd., priority 2023, dated 2025).
Read-outs that look alike come from different tables or passages of the source. Numbered stars: 1 amine (or outer) side, 2 acyl side, 3 side chain; on linkers, the order of the positions; unused ones are H or OH. Bridge positions count the residues as written; N and C are the ends. Square brackets hold non-standard residues; d marks the D form. Peptide text beside a SMILES is read from it. * marks the point of attachment. TBMB(SCH2CH2NH-DOTA) = O=C(O)CN1CCN(CC(=O)O)CCN(CC(=O)NCCSCc2cc(C[*:1])cc(C[*:2])c2)CCN(CC(=O)O)CC1; Phe(2-CF3) = N[C@@H](Cc1ccccc1C(F)(F)F)C(=O)O; Hyp = O=C(O)[C@@H]1C[C@@H](O)CN1; Hexanoyl = CCCCCC(=O)*; Aib = CC(C)(N)C(=O)O

Key:
U-87 MG cells [1] = assay: In vivo efficacy experiment in U-87 MG model mice; design: species or system B-NDG mice
Experimental: A total of 90 mice were inoculated. When the tumour in the mice grew to about […], 40 mice with uniform tumour sizes were selected for study enrolment.
The administration regimen was as follows: • Route of administration: tail vein injection; • Administration volume: 0.03-0.07 mL/animal; • Administration frequency and dose: The control group was given PBS, the ^177Lu-FAP-2286 group was given a single dose of 0.8 mCi/animal, the ^177Lu-DOTA-09 0.4mCi group was given a single dose of 0.4 mCi/animal, the ^177Lu-DOTA-09 0.8 mCi group was given a single dose of 0.8 mCi/animal, the ^177Lu-DOTA-09 0.8mCi×2 group was given two doses of 0.8 mCi/animal, with an administration interval of 35 days. Each group included eight animals. The administration time and administration activity of each mouse were recorded in detail.
After tumour modelling, the tumour size was observed. On the day before administration or the day of administration, the tumour volume was measured using a digital calliper, and the animal body weight was recorded. The animals were evenly divided into five groups on the basis of tumour volume, as follows: control group, ^177Lu-FAP-2286 0.8 mCi group, ^177Lu-DOTA-09 0.4 mCi group, ^177Lu-DOTA-09 0.8 mCi group, and ^177Lu-DOTA-09 0.8 mCi*2 group, with eight animals in each group.
On the day of administration, the test sample was taken for preparation (the stock solution of the test sample was directly used), and the activity of the prepared solution was measured.
From the second day after administration, the stage of tumour and body weight measurement began. The tumour and body weight measurement was performed at least twice a week. During each measurement, the long and short diameters of the tumour were recorded. The measurements were kept at the same location as possible. The abnormalities and deaths of the animals were recorded in time. […] The tumour volume was calculated as follows: tumour volume (mm^3) = long diameter × short diameter × short diameter × 0.52.

U-87 MG cells [2] = conditions: mouse, in vivo
Experimental: (§1) Experimental animals: Germline: B-NDG (Biocytogen Jiangsu Co., Ltd.); Age: 5-8 weeks old; Body weight: 20-24 g.
(§2) A sufficient quantity of U-87 MG cells was prepared and inoculated into the posterior position of the right forelimb of B-NDG mice in an inoculation volume of 100 µl, containing 50% Matrigel and 5 × 10^6 cells. After inoculation, the tumour volume and animal body weight were monitored twice a week. Model mice with a tumour volume between 200 and 500 m^3 were selected for enrolment in this experiment and randomly grouped on the basis of tumour volume.

[3] = rat, in vivo
Experimental: (§3) Experimental animals: Germline: SD rat (Beijing Vital River Laboratory Animal Technology Co., Ltd.); Age: 5-6 weeks old; Body weight: 100-150 g.
(§4) • 1) Empty tubes for γ-counting were weighed and labelled in advance. • 2) After the test sample was injected into the tail vein of rats, animal blood samples were collected from the orbit at 2 min, 5 min, 15 min, 30 min, 1 h, 2 h, 4 h, 6 h, 24 h, 48 h and 72 h. The sample tubes containing blood were weighed. • 3) The net weight of the blood was calculated, and the radioactive count of the collected blood was determined using a γ-counter. • 4) The distribution of the labelled compound in the blood of rats at different time points was determined. The test sample was accurately diluted 100-fold, and 0.5 ml of the dilution was added to a counting tube to serve as a 1% ID standard (i.e., one percent of the injected dose). The radioactive counts of both the 1% ID standard and the biological samples were simultaneously determined using the γ-counter. • 5) The pharmacokinetic parameters were calculated using DAS software.
(§5) Data obtained from rat blood was expressed as the percentage of radioactive count per gram of blood relative to the total dose (radioactive count) (%ID/g). Specific calculation formula: [formula]
(§6) At the same time, the drug concentration in the blood was calculated on the basis of the radioactive count in the blood. Specific calculation formula: Plasma concentration (μCi/mL) = ((CPMBlood/CPMTotal administered dose) × D (μCi)Administered dose)/(w (g) Blood/i (g/mL)Blood density) [formula]

[4] = Plasma concentration (pharmacokinetic) experiment of 177Lu-labelled compounds; conditions: for tissue uptake: SD, rat, whole blood, iv, total radioactivity
Experimental: as §3, §4, §5, §6

U-87 MG cells [5] = assay: PET/SPECT imaging test of labelled compounds in U-87 MG tumour-bearing mice; conditions: for Tumour uptake: 177Lu-labelled
Experimental: as §1, §2

[6] = as above; conditions: B-NDG, mouse, tumour and kidney, iv, total radioactivity
Experimental: as §1, §2

CCCCCC(=O)N[C@H]1CSCc2cc(CSCCNC(=O)CN3CCN(CC(=O)O)CCN(CC(=O)O)CCN(CC(=O)O)CC3)cc(c2)CSC[C@@H](C(=O)O)NC(=O)[C@H](Cc2ccccc2C(F)(F)F)NC(=O)[C@H](CCC(N)=O)NC(=O)[C@H]([C@@H](C)O)NC(=O)[C@@H]2C[C@@H](O)CN2C(=O)[C@@H]2CCCN2C(=O)C(C)(C)NC1=O [^177Lu-DOTA-09, metal not drawn] (Hexanoyl-C[Aib]P[Hyp]TQ[Phe(2-CF3)]C-OH; linker 1-8 via TBMB(SCH2CH2NH-DOTA))
body weight changes of mice (U-87 MG cells [1]; during administration, all dose groups): No significant body weight changes
course of tumour uptake / intratumoral retention (U-87 MG cells [2]): decreased slowly
half-life (t1/2) compared with control [3]: significantly longer
t1/2 [3]: 9.12 ± 4.69 h
Cl_obs ([4]; SD rat, tail vein, blood): 0.10±0.02 µCi/h*%ID/g
Cmax ([4]; SD rat, tail vein, blood): 0.89±0.21 %ID/g
MRTlast ([4]; SD rat, tail vein, blood): 15.49 ± 0.36 h
Vz_obs ([4]; SD rat, tail vein, blood): 2.21±0.38 µCi/%ID/g
tissue uptake ([4]; AUCINF_obs, SD rat, tail vein, blood): 5.28 ± 1.07
tissue uptake ([4]; AUClast, SD rat, tail vein, blood): 5.04 ± 0.94
mean residence time (MRTlast) compared with control ([4]; rats, versus 177Lu-FAP-2286, in words): significantly longer
Tumour uptake (U-87 MG cells [5]; Table 5, 0.5 h): 29.52±2.98
Tumour uptake (U-87 MG cells [5]; Table 5, 1.5 h): 30.88±3.14
Tumour uptake (U-87 MG cells [5]; Table 5, 4.0 h): 31.09±3.88
Tumour uptake (U-87 MG cells [5]; Table 5, 24h): 30.46±1.99
Tumour uptake (U-87 MG cells [5]; Table 5, 48h): 24.10±2.21
Tumour uptake (U-87 MG cells [5]; Table 5, 72h): 20.59±1.91
Tumour uptake (U-87 MG cells [5]; Table 5, 168h): 12.81±0.90
tumour/kidney ratio compared with control (U-87 MG cells [5]; versus 177Lu-FAP-2286, in words): higher
tissue to tissue ratio at 0.5 h [6]: 6.08 ± 1.62
tissue to tissue ratio at 1.5 h [6]: 8.66 ± 0.73
tissue to tissue ratio at 4 h [6]: 11.8 ± 2.62
tissue to tissue ratio at 24 h [6]: 19.4 ± 5.84

CCCCCC(=O)N[C@H]1CSCc2cc(CSCCNC(=O)CN3CCN(CC(=O)O)CCN(CC(=O)O)CCN(CC(=O)O)CC3)cc(c2)CSC[C@@H](C(=O)O)NC(=O)[C@H](Cc2ccccc2)NC(=O)[C@H](CCC(N)=O)NC(=O)[C@H]([C@@H](C)O)NC(=O)[C@@H]2CCCN2C(=O)[C@@H]2CCCN2C1=O [^177Lu-FAP-2286, metal not drawn]
tumour inhibition rate (U-87 MG cells [1]; day 20 after administration, single dose of 0.8 mCi/animal): 40.02%
tumour size (U-87 MG cells [1]; day 20 after administration, single dose of 0.8 mCi/animal, tail vein): 1833.89 ± 338.00 mm^3
median survival time (U-87 MG cells [1]; single dose of 0.8 mCi/animal): 39 days
course of tumour uptake / intratumoral retention (U-87 MG cells [2]): rapid decrease in intratumoral retention after 4 hours
Cl_obs [3]: 0.53±0.08 µCi/h*%ID/g
Cmax [3]: 0.73±0.27 %ID/g
MRTlast [3]: 2.52 ± 0.34 h
Vz_obs [3]: 1.50±0.97 µCi/%ID/g
t1/2 [3]: 1.29 ± 0.43 h
tissue to tissue ratio at 0.5 h [6]: 3.29 ± 0.78
tissue to tissue ratio at 1.5 h [6]: 6.53 ± 1.12
tissue to tissue ratio at 4 h [6]: 9.82 ± 4.79
tissue to tissue ratio at 24 h [6]: 2.75 ± 0.9
